Entries after “also recorded” stand apart in the source; their conditions may differ.
What was measured:
LNCaP cells = experiment: Immunostaining of formalin fixed, paraffin embedded LNCaP cell pellets with phospho-specific antibodies after inhibitor treatment; type: cell-based; details: 18 hours, vs vehicle
Protocol: (§1) Cells (LNCaP, DU 145, HT 129) were grown in culture (DMEM supplemented with 10% FBS, L-Glutamine, Penicillin and Streptomycin) and exposed to vehicle, the PI3K inhibitor LY294002 (30 μM), the mTOR inhibitor, CCI-779 (20 nM) for 18 hours or the MEK inhibitor, UO126 (20 μM) combined with 100 ng/ml of EGF for 20 minutes. Cell pellets were prepared, formalin fixed and embedded in paraffin, then cut for immunohistochemical staining with phospho-AKT, -S6, -FKHR and -ERK antibodies. We performed antigen retrieval with a 10 mM sodium citrate buffer (pH 6.0) for 30 minutes in a pressure cooker. Peroxidase activity was quenched with 3% hydrogen peroxide in water. Sections were stained overnight at 4° C. with monoclonal antibodies to PTEN at 1:300 (clone 6H2.1; Cascade Bioscience, Winchester, Mass. This antibody recognizes a 99 amino acid epitope at the C-terminus of PTEN) and polyclonal phosphorylation-specific antibodies to p-AKT (Set 473), p-FKHR which recognizes phosphorylated forms of the forkhead family of transcription factors FKHR (FOXO 1), FKHRL1 (FOXO 3a) and AFX (FOXO 4), p-S6 Ribosomal protein (Set 235/236), p-ERK (Thr-202/Tyr-204) at 1:100 (Cell Signaling Technology, Beverly, Mass.). This was followed by application of biotinylated secondary antibodies (Vector) at 1:1000 dilution for 30 minutes and Avidin-biotin complex (Elite ABC; Vector). Negative control slides received normal mouse serum (DAKO) as the primary antibody. Diaminobenzidine tetrahydrochloride (DAB) was used as the enzyme substrate to visualize specific antibody localization for PTEN and p-AKT; Vector NovaRed (Vector) for p-FKHR, p-S6 and p-ERK. Slides were counterstained with Harris hematoxylin. For immunofluorescence assays, post fixation in paraformaldehyde, the cells were probed with Total AKT (1:50) and p-AKT (1:250); the secondary antibodies Alexa Flour anti-rabbit and anti-mouse (1:1000) [Molecular Probes, Eugene, Oreg.]. Following incubation, images were captured on a Nikon fluorescence microscope and then overlaid using Adobe Photoshop software. […]

[1] = test system: PTEN deficient prostate cancer xenografts; details: PTEN deficient vs wild type prostate cancer xenografts; cited from earlier work
[2] = test system: PTEN deficient prostate cancer cell lines; details: PTEN deficient vs wild type prostate cancer cell lines; cited from earlier work
HT129 cells = experiment: p-ERK staining in EGF-induced HT129 cells; type: cell-based
Protocol: as §1, with “This was followed by application of biotinylated secondary antibodies (Vector) at 1:1000 dilution for 30 minutes and Avidin-biotin complex (Elite ABC; Vector). Negative control slides received normal mouse serum (DAKO) as the primary antibody. Diaminobenzidine tetrahydrochloride (DAB) was used as the enzyme substrate to visualize specific antibody localization for PTEN and p-AKT; Vector NovaRed (Vector) for p-FKHR, p-S6 and p-ERK. Slides were counterstained with Harris hematoxylin. For immunofluorescence assays, post fixation in paraformaldehyde, the cells were probed with Total AKT (1:50) and p-AKT (1:250); the secondary antibodies Alexa Flour anti-rabbit and anti-mouse (1:1000) [Molecular Probes, Eugene, Oreg.].” left out

SKMG-3 cells = details: unstimulated SKMG-3 cells, minimal growth conditions; cited from earlier work

CO[C@H]1C[C@@H]2CC[C@@H](C)[C@@](O)(O2)C(=O)C(=O)N2CCCC[C@H]2C(=O)O[C@H]([C@H](C)C[C@@H]2CC[C@@H](OC(=O)C(C)(CO)CO)[C@H](OC)C2)CC(=O)[C@H](C)/C=C(\C)[C@@H](O)[C@@H](OC)C(=O)[C@H](C)C[C@H](C)/C=C/C=C/C=C/1C [CCI-779]
staining intensity of p-AKT (LNCaP cells; CCI-779 20 nM): no effect | staining intensity of p-S6 (S6 phosphorylation) (LNCaP cells; CCI-779 20 nM): downregulation of S6 phosphorylation; also recorded: decreased staining intensity | sensitivity to pharmacologic inhibition of mTOR compared to wild type counterparts [1]: more sensitive | sensitivity to pharmacologic inhibition of mTOR compared to wild type counterparts [2]: more sensitive

O=c1cc(N2CCOCC2)oc2c(-c3ccccc3)cccc12 [LY294002]
p-ERK staining (HT129 cells; HT129 cells induced with EGF 100 ng/ml, LY294002): lack of inhibition | staining intensity of p-ERK (LNCaP cells; LY294002 30 μM): no effect

CNc1cc2c(Nc3cccc(Br)c3)ncnc2cn1 [PD158780]
constitutive phosphorylation of Erk (SKMG-3 cells): reduces the constitutive phosphorylation | constitutive phosphorylation of the receptor (EGFR) (SKMG-3 cells): reduces the constitutive phosphorylation

N#CC(=C(/N)Sc1ccccc1N)/C(C#N)=C(/N)Sc1ccccc1N [UO-126]
p-ERK staining (HT129 cells; HT129 cells induced with EGF 100 ng/ml for 20 minutes, UO-126 20 μM for 20 minutes): decreased staining; also recorded: reduced
